Laboratory results as given in PubChem BioAssay AID2060610 (Molecular Pharmacology Branch, DTP, NCI, 2025).

System: 616215-338-R-J1-PDC complex spheroids, viability % test/control
Test: Anticancer human tumor 616215-338-R-J1-PDC patient-derived colon adenocarcinoma cell line growth inhibition [CLK]
Conditions: for IC50: curve of first compound; for viability, T/C: stronger effect = lower value
Text: A high-throughput screen of multi-cell type tumor spheroids was designed to identify active combinations of […] and targeted small molecules. Complex spheroids include a stromal component modeled by human endothelial cells (HUVEC) and fibroblasts modeled by human mesenchymal stem cells (MSCs). The concentration ranges selected for each drug and investigational agent were based upon clinically achievable concentrations if the clinical Cmax of the agent was known.
Compounds. The drugs and investigational agents: cirtuvivint (SM08502; NSC835563), CC-671 (NSC850746), vemurafenib (NSC761431), tapotoclax (NSC804041), sotorasib (NSC818433), adagrasib (NSC831453), MRTX-1133 (NSC836407), BAY2416964 (NSC825713), copanlisib (NSC816437), inavolisib (NSC800729), abemaciclib (NSC768073), osimertinib (NSC779217), entinostat (NSC756642), eltanexor (KPT-8602, NSC794443), venetoclax (NSC766270), ceralasertib (NSC777638), bortezomib (NSC756655), olaparib (NSC753686), talazoparib (NSC767125), alisertib (NSC759677), peposertib (NSC802822), gemcitabine (NSC613327), 5-fluorouracil (NSC19893), SN-38 (NSC673596), oxaliplatin (NSC266046), paclitaxel (NSC125973), and doxorubicin (NSC123127), were obtained from the National Cancer Institute (NCI) Developmental Therapeutics Program Chemical Repository. The FDA-approved anticancer drug set is available from the Developmental Therapeutics Program at https://dtp.cancer.gov/organization/dscb/obtaining/available plates.htm. […] The stock solutions were prepared in dimethyl sulfoxide (DMSO, Sigma-Aldrich, St. Louis, MO, cat. D2650), except for the platinum complexes which were prepared in saline (Quality Biological, Gaithersburg, MD, cat. 114-055-101), at 800-fold the tested concentration and stored at -70 degrees C prior to their use. All drugs and investigational agents were tested over a range starting from a high concentration at or near the clinical Cmax and decreasing in half-log increments. If the clinical Cmax for an agent had not been determined, the highest concentration tested was 10 microM.
Cell Culture. All cells were maintained in an incubator at 37 degrees C and 5% CO2 with 95% humidity. The PDC lines were cultured according to standard operating procedures established by the NCI PDMR. Briefly, all PDCs were thawed and cultured in Matrigel-coated flasks prepared with a working solution of 1X Ham's F-12 nutrient mix, without supplementation (Invitrogen, Waltham, MA, cat. 11765054), 100 U/mL penicillin-streptomycin (Invitrogen, cat. 15140122), and 2.5% Matrigel (Corning Inc., Corning, NY, cat. 354248) for the first three passages. The 947758-054-R-J2-PDC line was cultured in 6B/Colon 1A media, which includes advanced DMEM/F-12 (Thermo Fisher Scientific, cat. 12634028), 10 mM HEPES (Thermo Fisher Scientific, cat. 15630080), 1X GlutaMAX supplement (Thermo Fisher Scientific, cat. 35050061), 0.1 mg/mL primocin (InvivoGen, cat. ant-pm-2), 10% defined fetal bovine serum, heat inactivated (HyClone Laboratories Inc., cat. SH30070.03HI), 1.25 mM N-Acetyl-L-cysteine (Sigma-Aldrich, cat. A9165), 10 mM nicotinamide (Sigma-Aldrich, cat. N0636), 1X B-27 supplement (Thermo Fisher Scientific, cat. 17504044), 1X N-2 supplement (Thermo Fisher Scientific, cat. 17502048), and 10 microM Y-27632 dihydrochloride (Tocris Bioscience, cat. 1254). The 876862-298-R-J1-PDC was cultured in 6E media, which includes all 6B/Colon 1A media components plus 50% L-WRN conditioned media (ATCC, cat. CRL-3276), 50 ng/mL recombinant human EGF recombinant protein (hEGF; Thermo Fisher Scientific, cat. PHG0311), 10 ng/mL recombinant human fibroblast growth factor 10 (hGFG-10; PeproTech, cat. 100-26), 1 ng/mL recombinant human fibroblast growth factor 2 (hFGF-2; PeproTech, cat. 100-18B), and 1 µM prostaglandin E2 (PGE2; Tocris, cat. 2296). The 227483-062-R1-J1-PDC line was cultured in Panc media, containing all 6E components except hFGF-2, with the addition of 500 nM SB-431542 (Selleckchem, cat. S1067) and 10 nM gastrin (Tocris, cat. 3006). […]
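Further: spheroids exposed to agents for 7 days.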
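Wherever viability, T/C is given: 100% = DMSO vehicle wells.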

With Nc1ccn(C2OC(CO)C(O)C2(F)F)c(=O)n1 (configuration not stated) + CN1CCN(c2cc(C(=O)Nc3cc4cc(-c5cnn(C)c5)ccc4cn3)ccn2)CC1 the IC50 (second compound 0.0316 µM) was < 0.0316 µM, the IC50 (second compound 0.1 µM) was < 0.0316 µM and the IC50 (second compound 0.316 µM) was < 0.0316 µM. For the same molecule, the IC50 (second compound 1 µM) was < 0.0316 µM, the IC50 (second compound 3.16 µM) was < 0.0316 µM and the IC50 (second compound 10 µM) was < 0.0316 µM. For the same molecule, the viability, T/C (second compound 0.0316 µM, first compound 0.0316 µM) was 15.5%, the viability, T/C (second compound 0.0316 µM, first compound 0.1 µM) was 10.3% and the viability, T/C (second compound 0.0316 µM, first compound 0.316 µM) was 14.1%. It also gave a viability, T/C (second compound 0.0316 µM, first compound 1 µM) of 13.6%, a viability, T/C (second compound 0.0316 µM, first compound 3.16 µM) of 14.3% and a viability, T/C (second compound 0.0316 µM, first compound 10 µM) of 12.7%. The viability, T/C (second compound 0.1 µM, first compound 0.0316 µM) was 18%, the viability, T/C (second compound 0.1 µM, first compound 0.1 µM) was 14.5% and the viability, T/C (second compound 0.1 µM, first compound 0.316 µM) was 14%. The viability, T/C (second compound 0.1 µM, first compound 1 µM) was 14.3%, the viability, T/C (second compound 0.1 µM, first compound 3.16 µM) was 17% and the viability, T/C (second compound 0.1 µM, first compound 10 µM) was 18%. It also gave a viability, T/C (second compound 0.316 µM, first compound 0.0316 µM) of 13.8%, a viability, T/C (second compound 0.316 µM, first compound 0.1 µM) of 11% and a viability, T/C (second compound 0.316 µM, first compound 0.316 µM) of 13.8%. It also gave a viability, T/C (second compound 0.316 µM, first compound 1 µM) of 10.6%, a viability, T/C (second compound 0.316 µM, first compound 3.16 µM) of 12.1% and a viability, T/C (second compound 0.316 µM, first compound 10 µM) of 13.3%. It also gave a viability, T/C (second compound 1 µM, first compound 0.0316 µM) of 0.1%, a viability, T/C (second compound 1 µM, first compound 0.1 µM) of 0.13% and a viability, T/C (second compound 1 µM, first compound 0.316 µM) of 2.94%. It also gave a viability, T/C (second compound 1 µM, first compound 1 µM) of 0.12%, a viability, T/C (second compound 1 µM, first compound 3.16 µM) of 1.83% and a viability, T/C (second compound 1 µM, first compound 10 µM) of 1.85%. For the same molecule, the viability, T/C (second compound 3.16 µM, first compound 0.0316 µM) was 0.1%, the viability, T/C (second compound 3.16 µM, first compound 0.1 µM) was 0.13% and the viability, T/C (second compound 3.16 µM, first compound 0.316 µM) was 0.14%. It also gave a viability, T/C (second compound 3.16 µM, first compound 1 µM) of 0.09%, a viability, T/C (second compound 3.16 µM, first compound 3.16 µM) of 0.1% and a viability, T/C (second compound 3.16 µM, first compound 10 µM) of 0.11%. It also gave a viability, T/C (second compound 10 µM, first compound 0.0316 µM) of 0.15%, a viability, T/C (second compound 10 µM, first compound 0.1 µM) of 1.73% and a viability, T/C (second compound 10 µM, first compound 0.316 µM) of 0.16%. It also gave a viability, T/C (second compound 10 µM, first compound 1 µM) of 2%, a viability, T/C (second compound 10 µM, first compound 3.16 µM) of 3.33% and a viability, T/C (second compound 10 µM, first compound 10 µM) of 0.18%.
